# Patent publication US20240307362A1 (priority 2019, published 2024)
# Where two headings read alike, the source gives them in different places.
# Tests used:
# [1] = molecular target: human Bub1 (Homo sapiens (Human), UniProt O43683); experiment: Bub1 high ATP kinase assay (TR-FRET); type: biochemical; conditions: read-out: Bub1 high ATP (2 mM) IC50; 2 mM ATP
# Description: Bub1-inhibitory activity of compounds of the present invention at a high ATP concentration was quantified employing the Bub1 TR-FRET high ATP kinase assay as described in the following paragraphs.
# N-terminally His6-tagged recombinant catalytic domain of human Bub1 (amino acids 704-1085), expressed in insect cells (Hi5) and purified by Ni-NTA affinity chromatography and subsequent size exclusion chromatography, was used as enzyme.
# [2] = system: Ba/F3-EGFR-insSVD; experiment: Ba/F3 cell survival assay, EGFR-insSVD; type: cell-based
# Summary of the method: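 Ba/F3 cells stably expressing WT EGFR or EGFR-insSVD via retrovirus, grown without IL-3 on 10 ng/mL EGF, plated at 4000 cells/well. Compound exposure 48 h at 37 °C; viability read by CellTiter-Glo luminescence.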
# [3] = system: Ba/F3-EGFR-N771_P772insH; experiment: Ba/F3 cell survival assay, EGFR N771_P772insH; type: cell-based; conditions: 48 h, read-out: BA/F3 (EGFR N771— P772insH) IC50
# Procedure: (§1) 293T cells from ATCC were transfected with pBABEpuro expression constructs for mutant EGFR (V769_D770insASV, D770_N771insNPG, N771_P772insH, H773_V774insNPH, E746_A750del, L858R, D770_N771 insSVD C797S, E746_A750del C797S, L858R C797S, L861Q) or mutant ERBB2 (A775_G776insYVMA) and pCL-Eco packaging vector using Fugene-6 transfection reagent from Promega. Plates were incubated at 37° C. for 48 h. Retrovirus was harvested by filtering the media supernatant through a 0.45 μm filter.
# (§2) Ba/F3 cells purchased from DSMZ were grown in RPMI+10% FBS+10 ng/mL IL-3 and infected with filtered retroviral supernatant at a 1:2 dilution. Polybrene was added to a concentration of 8 μg/mL, plates were spun for 90 min, and incubated overnight at 37° C. 2 μg/mL puromycin was added to the infected cells 24 h after infection and cells were continually grown in the presence of puromycin and 10 ng/mL IL-3. Following stably expressing Ba/F3 cell lines were generated: Ba/F3-EGFR-V769_D770insASV, Ba/F3-EGFR-D770_N771insNPG, Ba/F3-EGFR-N771_P772insH, Ba/F3-EG, Ba/F3-EGFR-H773_V774insNPH, Ba/F3-EGFR-E746_A750del, Ba/F3-EGFR-L858R, Ba/F3-EGFR-D770_N771 insSVD C797S, Ba/F3-EGFR-E746_A750del C797S, Ba/F3-EGFR-L858R C797S, Ba/F3-EGFR L861Q and Ba/F3-ERBB2-A775_G776insYVMA (Ba/F3—vector-control).
# (§3) For cell survival assays, Ba/F3 cells were grown to a density of 1-2 million cells per mL, spun down and resuspended in media without IL-3, and replated at a concentration 200,000-500,000 cells per mL. The cells ectopically expressing WT EGFR plated with 10 ng/mL Millipore Culture grade EGF and Ba/F3 cells containing mutant EGFR or Mutant ERBB2 were cultivated without EGF. The cells ectopically expressing pBABEpuro empty vector were plated with 10 ng/mL IL-3.
# (§4) 2 days later, cells were plated in 50 μL in a 384 well plate at a concentration of 4000 cells per well for cells assayed in the absence of IL-3 and 2000 cells per well for cells assayed in the presence of IL-3. 100 nL of compound was added to each well using a 100 nL pin head, and plates were incubated at 37° C. for 48 h.
# (§5) Cell viability was measured by adding 20 μL of Cell Titer-Glo Luminescent Cell Viability Reagent diluted 1:3 in PBS. Plates were sealed with Perkin Elmer Top-Seal, inverted several times to mix, and immediately centrifuged at 1000 rpm for 2 min. Plates were incubated in low light conditions for 8-10 min and luminescence was measured.
# [4] = system: Ba/F3-EGFR-H773_V774insNPH; experiment: Ba/F3 cell survival assay, EGFR H773_V774insNPH; type: cell-based; conditions: Ba/F3 EGFR-H773-V774ins_NPH, 48 h, read-out: BA/F3 (EGFR H773— V774insNPH) IC50
# Procedure: as §1, §2, §3, §4, §5
# [5] = system: Ba/F3-EGFR-E746_A750del; experiment: Ba/F3 cell survival assay, EGFR E746_A750del; type: cell-based; conditions: 48 h, read-out: BA/F3 (EGFR E746_A750del) IC50
# Procedure: as §1, §2, §3, §4, §5
# [6] = system: Ba/F3-EGFR-L858R; experiment: Ba/F3 cell survival assay, EGFR L858R; type: cell-based; conditions: 48 h, read-out: BA/F3 (EGFR L858R) IC50
# Procedure: as §1, §2, §3, §4, §5
# [7] = system: Ba/F3-EGFR L861Q; experiment: Ba/F3 cell survival assay, EGFR L861Q; type: cell-based; conditions: 48 h, read-out: BA/F3 (EGFR L861Q) IC50
# Procedure: as §1, §2, §3, §4, §5
# [8] = system: Ba/F3-EGFR-D770_N771 insSVD C797S; experiment: Ba/F3 cell survival assay, EGFR D770_N771insSVD C797S; type: cell-based; conditions: Ba/F3 EGFR-D770-N771ins_SVD, 48 h, read-out: BA/F3 (EGFR 0770_N771 insSVD C797S) IC50
# Procedure: as §1, §2, §3, §4, §5
# [9] = system: Ba/F3-EGFR-E746_A750del C797S; experiment: Ba/F3 cell survival assay, EGFR E746_A750del C797S; type: cell-based; conditions: 48 h, read-out: BA/F3 (EGFR E746_A750del C797S) IC50
# Procedure: as §1, §2, §3, §4, §5
# [10] = read-out: BA/F3 (insSVD) IC50, cell viability, Cell Titer-Glo, 48 h, with 10 ng/mL EGF, without IL-3
# Chain of human Bub1 (O43683 704-1085): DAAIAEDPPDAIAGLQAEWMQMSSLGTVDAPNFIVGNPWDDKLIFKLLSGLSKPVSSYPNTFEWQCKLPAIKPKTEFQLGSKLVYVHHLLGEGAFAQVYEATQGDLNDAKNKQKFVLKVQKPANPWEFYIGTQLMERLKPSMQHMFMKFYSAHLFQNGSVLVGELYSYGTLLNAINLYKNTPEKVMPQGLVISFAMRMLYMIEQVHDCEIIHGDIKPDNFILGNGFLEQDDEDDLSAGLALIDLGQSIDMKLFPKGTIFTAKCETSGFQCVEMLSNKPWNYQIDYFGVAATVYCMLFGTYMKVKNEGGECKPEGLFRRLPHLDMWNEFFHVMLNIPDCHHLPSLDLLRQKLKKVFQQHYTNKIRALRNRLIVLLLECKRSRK
SMILES,IC50 [1] [nM],"IC50 ([2]; Mus musculus, BaF3, 48 h, read-out: BA/F3 (insSVD) IC50, cell viability, Cell Titer-Glo, 48 h, with 10 ng/mL EGF, without IL-3) [nM]",IC50 [3] [nM],IC50 [4] [nM],IC50 [5] [nM],IC50 [6] [nM],IC50 [7] [nM],IC50 [8] [nM],IC50 [9] [nM],"IC50 [2, 10] [nM]"
"COc1c(Cl)cccc1Nc1c(-c2ccncc2OC[C@@H]2CCO2)[nH]c2c1C(=O)NCC2 [Example 2, 3-(3-chlor-2-methoxyanilino)-2-{3-[(2S)-oxetan-2-ylmethoxy]pyridin-4-yl}-1,5,6,7-tetrahydro-4H-pyrrolo[3,2-c]pyridin-4-on]",> 20000,10.3,5.59,30.1,0.328,1.2,16.8,17.5,0.328,
"COc1c(Cl)cccc1Nc1c(-c2ccncc2OCC2(C)CCO2)[nH]c2c1C(=O)NCC2 (single isomer, unassigned; (+)) [Example 48, (+)-3-(3-chloro-2-methoxyanilino)-2-{3-[(2-methyloxetan-2-yl)methoxy]pyridin-4-yl}-1,5,6,7-tetrahydro-4H-pyrrolo[3,2-c]pyridin-4-one]",10300,,5.13,38.3,0.34,1.28,14.9,16.7,0.34,9.65
"COc1c(Cl)cccc1Nc1c(-c2ccncc2OCC2OCC2(C)C)[nH]c2c1C(=O)NCC2 (single isomer, unassigned; (+)) [Example 50, (+)-3-(3-chloro-2-methoxyanilino)-2-{3-[(3,3-dimethyloxetan-2-yl)methoxy]pyridin-4-yl}-1,5,6,7-tetrahydro-4H-pyrrolo[3,2-c]pyridin-4-one]",> 20000,,7.64,45.4,0.519,1.62,21.3,35.1,0.519,8.76
"COc1c(Cl)cccc1Nc1c(-c2ccncc2OCCC2CCO2)[nH]c2c1C(=O)NCC2 (single isomer, unassigned; (-)) [Example 26, (−)-3-(3-chloro-2-methoxyanilino)-2-{3-[2-(oxetan-2-yl)ethoxy]pyridin-4-yl}-1,5,6,7-tetrahydro-4H-pyrrolo[3,2-c]pyridin-4-one]",1540,,3.7,29.6,0.27,0.813,6.51,13.7,0.27,7.31
